Laboratory results: patent publication US20120121753A1, “COMPOSITIONS AND METHODS FOR PREVENTION AND TREATMENT OF OBESITY AND OBESITY RELATED METABOLIC SYNDROME” (JINIS BIOPHARMACEUTICALS CO., priority 2009, published 2012)

Experiments:
Male SD rats = assay: Effect of FARM3 on diet-induced obesity (4 weeks, obese rats); format: in vivo, rat; conditions: 4 weeks of treatment
Description: The 3 month old male SD rats were given high-fat feed (described above) for 8 weeks to develop diet-induced obesity with average body weight of 425 g. The rats were randomly divided into groups (n=14 per group) and received fermented yogurt or drug under continued high-fat diet conditions: 3179 group (high fat diet with yogurt fermented by L. acidophilus KCTC 3179 strain), FARM3 group (high fat diet with yogurt fermented by FARM3 mutant), Orlistat™ (high fat diet with Xenical™ in an amount of 200 mg/kg diet).
The 3 month old male SD rats were given high-fat feed for 8 weeks to develop diet-induced obesity with average body weight of 425 g. The diet-induced obese rats were administered daily yogurt fermented with wild-type Lactobacillus 3179 (∘, high fat diet with yogurt fermented by L. acidophilus KCTC3179 strain), yogurt fermented with FARM3 ([…], high fat diet with yogurt fermented by FARM3) or Orlistat™ (Δ, high fat diet with Xenical™ 200 mg/kg diet) under continued high-fat diet condition for 4 weeks.

[1] = test system: gastric and pancreatic lipase; conditions: background statement; cited from earlier work

## CCCCCCCCCCC[C@@H](C[C@@H]1OC(=O)[C@H]1CCCCCC)OC(=O)[C@H](CC(C)C)NC=O [Orlistat™, Orlistat]
Male SD rats
  oily feces: oily feces
[1]
  reduction of dietary fat absorption: approximately 30%
